Measured values reported in publication PMC2965138, “DEB025 (Alisporivir) Inhibits Hepatitis C Virus Replication by Preventing a Cyclophilin A Induced Cis-Trans Isomerisation in Domain II of NS5A” (PLoS ONE, 2010).
Where “and” joins values, the source holds several entries; their conditions need not be identical. Equal values may be shown once. Read-outs that look alike come from different tables or passages of the source.

What was measured:
[1] = system: CsA^res HCV subgenomic replicon (Con1-GT1b) in Huh 9–13 cells; design: method as in PMID 19104013; settings: cited from earlier work
[2] = system: DEB025^res HCV subgenomic replicon (Con1-GT1b) in Huh 9–13 cells; design: method as in PMID 19104013; settings: cited from earlier work
Experimental: (§1) Replicon-containing cells were continuously passaged in these double-selection media. When cultures had adapted to replication in the presence of a particular concentration of DEB025 (i.e. no more massive cell death) the concentration was increased in steps of 0.21 µM (typically every 3 passages).

[3] = system: mutant GT1b subgenomic luciferase replicons in Huh7-Lunet cells; assay type: cell-based, Hepatitis C virus genotype 1b; settings: for sensitivity of the generated mutant replicons compared to WT: site-directed mutant replicons, data not shown; for fold reduction in sensitivity (based on EC50-values) compared to WT replicon: luciferase assay
[4] = system: HCV subgenomic replicon (Con1-GT1b) in Huh 9–13 cells
[5] = system: recombinant replicon with DEB025^res NS5A sequence in Huh7-Lunet cells
Experimental: (§2) The antiviral phenotype of this construct was evaluated in comparison with a construct into which the NS5A region derived from WT Huh 9–13 cells (which were cultured in parallel), was swapped.
(§3) For comparative reasons also the original unmanipulated vector was included in the analysis. […] Data are mean values ± standard deviations for at least three independent experiments. (C) Replication fitness of the different recombinant replicons. Huh7-Lunet cells were transiently transfected with each of the indicated replicon constructs and replicon RNA replication was quantified by means of a luciferase assay for 4 days post transfection. Data are normalized to the 4 h-value post electroporation to account for differences in electroporation efficiency and is expressed as percentage of the WT-value at 96 h post electroporation. Data are mean values ± standard deviations for at least two independent experiments.
(§4) RNA was isolated from either DEB025^res or WT HCV subgenomic replicon cells using the RNeasy mini kit (Qiagen). First-strand cDNA was synthesized using SuperScript II RT (Invitrogen). The NS5A or NS5B-containing regions were amplified in an AccuPrime Pfx DNA polymerase reaction (Invitrogen) for subsequent cloning into the WT Con1 plasmid. All constructs were sequenced to verify the correct manipulation.
(§5) Huh7-Lunet single-cell suspensions were prepared by trypsinization, washed twice with Opti-MEM® I (Invitrogen) and then resuspended at 1×10∧7 cells per ml in Cytomix containing 2 mM ATP and 5 mM glutathione. Ten µg of in vitro transcribed RNA was mixed with 400 µl cell suspension in a cuvette with a gap width of 4 mm (VWR International) and an ECM 830 Electro Square Porator™ (BTX Harvard Apparatus) was used to deliver 5 pulses at 900 V, 99 µsec. Cells were immediately transferred to 20 ml complete DMEM and seeded as required for the assay. Briefly, 100 or 700 µl aliquots of the cell suspension were seeded in a 96- or 24-well plate (Iwaki), respectively, filled with serial dilutions of the antiviral molecule in complete DMEM.

[6] = system: recombinant replicon with WT NS5A sequence in Huh7-Lunet cells; settings: read-out: EC50, inhibition of replicon replication, replicon engineered to contain WT NS5A sequence, transient, 72 h, luciferase, mean ± SD
Experimental: as §2, §3, §4, §5

[7] = system: WT HCV subgenomic replicon (Con1-GT1b) in Huh 9–13 cells
Description: Huh7 cells containing subgenomic HCV genotype 1b replicon I377/NS3-3′/wt (Huh 9–13) [47], [48] and I389luc-ubi-neo/NS3-3′/5.1 (Huh 5–2) were used to select for resistance.

CypA = biological target: T1, CypA (Homo sapiens, UniProt P62937); settings: cited from earlier work
T1 construct: made in house
T1 sequence (P62937 whole entry): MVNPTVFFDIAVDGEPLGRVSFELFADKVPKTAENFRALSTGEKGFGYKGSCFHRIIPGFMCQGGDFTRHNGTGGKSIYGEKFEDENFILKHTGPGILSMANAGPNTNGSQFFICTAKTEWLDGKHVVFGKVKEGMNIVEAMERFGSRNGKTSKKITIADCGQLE

calcineurin = settings: cited from earlier work
Description: (§6) Several CsA-analogues, i.e. NIM811 [19], DEB025 and SCY-635 [20], are currently in preclinical and clinical development. […] We reported earlier on the potent in vitro anti-HCV activity of DEB025 [22] and on the particular characteristics of its anti-HCV activity.

HCV = settings: cited from earlier work; for viral load reduction: genotype 1 null/partial responders, 29 days; for decrease in viral load: phase II
Description: as §6

[8] = cited from earlier work
Description: as §6

[9] = system: DEB025^res HCV subgenomic replicon (Con1-GT1b) in Huh 9–13 cells; settings: read-out: EC50, inhibition of HCV replicon RNA, DEB025^res Huh 9-13 culture, 72 h treatment, RT-qPCR, mean ± SD, at least three independent experiments
Experimental: as §1
(§7) HCV replicon RNA was quantified by means of RT-qPCR and is expressed as the percentage of HCV replicon RNA of the untreated control cells. Data are mean values±standard deviations for at least three independent experiments.
(§8) When cells suffered from compound pressure, G418 pressure was removed till cells recovered. […] Four independent resistance selection experiments were carried out, three with Huh 9–13 replicons and one with Huh 5–2 replicons.
(§9) HCV replication assays were performed and analysed using published procedures.

[10] = system: CsA^res HCV subgenomic replicon (Con1-GT1b) in Huh 9–13 cells; settings: read-out: EC50, inhibition of HCV replicon RNA, CsA^res Huh 9-13 culture, 72 h treatment, RT-qPCR, mean ± SD, at least three independent experiments
Experimental: as §1, §7, §8, §9

[11] = system: replicons resistant to DAA inhibitors of different classes; settings: cited from earlier work
[12] = system: JFH1-derived subgenomic replicon (GT2a); settings: replicon with mutation near NS5A/NS5B cleavage site (position 464); cited from earlier work
[13] = system: WT replicon RNA in Huh7-Lunet cells; settings: read-out: EC50, inhibition of replicon RNA, Huh7-Lunet stably transfected with WT replicon RNA, RT-qPCR, mean ± SD
Experimental: (§10) HCV replicon RNA was quantified by means of RT-qPCR and is expressed as the percentage of HCV replicon RNA of the untreated control cells. Data are mean values ± standard deviations for at least three independent experiments.
(§11) One day before lipofection, Huh7-Lunet cured cells were seeded in a 25 cm^2 flasks at a cell density of 5.26×10^5 cells. Just before transfection, the cells were washed once with opti-MEM® I (Invitrogen) and incubated for 4 h at 37°C with transfection medium containing: 26.3 µg of RNA, DMRIE-C Reagent (Invitrogen) and opti-MEM I serum free medium. Four hours post transfection, medium was replaced by culture medium without G418. Depending on the proliferation of the cells, G418 was gradually added to the cultures (to a final concentration of 1 mg/ml) to generate stable cell lines.

[14] = system: DEB025^res replicon RNA in Huh7-Lunet cells
Experimental: as §10, §11

[15] = system: recombinant replicon with DEB025^res NS5B gene in Huh7-Lunet cells; assay type: cell-based, Hepatitis C virus genotype 1b; settings: entire NS5B gene of DEB025^res replicon in WT background, control NS5B from WT cells
Experimental: as §3, §4
Huh7-Lunet single-cell suspensions were prepared by trypsinization, washed twice with Opti-MEM® I (Invitrogen) and then resuspended at 1×10∧7 cells per ml in Cytomix containing 2 mM ATP and 5 mM glutathione. […]

Experimental for CypA-NS5A interaction: We next studied whether the NS5A mutations, either alone or in combination, have an influence on (i) the binding of NS5A to CypA and (ii) the sensitivity of the CypA-NS5A interaction to DEB025.
Glutathione beads were added to the GST-CypA/NS5A-His mixture for 30 min at 4°C and washed. Bound material was eluted and analyzed by Western blotting using anti-His and anti-CypA antibodies. (C) The percentage of NS5A pulled down in the presence of increasing concentrations of DEB025, relative to the amount of NS5A pulled down in the absence of the drug.
NS5A mutants were created by site-directed mutagenesis.
Pull-down experiments were conducted as described previously [55]. Briefly, GST-CypA (100 ng) was mixed with 10 ng of NS5A-His in a total volume of 200 µl for 3 h at 4°C on a rotating wheel. Glutathione beads (25 µl) were added to the GST-CypA/NS5A-His mixture for 30 min at 4°C and samples were washed 3 times thereafter. […] Bound material was then analyzed by Western blotting using anti-CypA and anti-His antibodies as described previously [9]. […] To calculate the percent of NS5A pulled down relative to the amount of NS5A pulled down in the absence of the drug scans of ECL-developed films were analyzed by Bio-Rad densitometer model 620 and quantified by Bio-Rad Program Manager software (Bio-Rad Laboratories, Inc., Hercules, CA). […]

SMILES: C[C@@]1(O)[C@H](O)[C@@H](CO)O[C@H]1n1ccc(N)nc1=O [2′-C-methylcytidine]
- antiviral activity against CsA^res replicons compared to WT [1]: retained WT-antiviral activity
- antiviral activity against DEB025^res replicons compared to WT [2]: retained WT-antiviral activity
- sensitivity of the generated mutant replicons compared to WT [3]: retained WT-activity

SMILES: CCC[C@H](NC(=O)[C@@H]1[C@H]2CCC[C@H]2CN1C(=O)[C@@H](NC(=O)[C@@H](NC(=O)c1cnccn1)C1CCCCC1)C(C)(C)C)C(=O)C(=O)NC1CC1 [VX-950]
- antiviral activity against CsA^res replicons compared to WT [1]: retained WT-antiviral activity
- antiviral activity against DEB025^res replicons compared to WT [2]: retained WT-antiviral activity
- sensitivity of the generated mutant replicons compared to WT [3]: retained WT-activity

SMILES: C/C=C/C[C@@H](C)[C@@H](O)[C@H]1C(=O)N[C@@H](CC)C(=O)N(C)[C@H](C)C(=O)N(CC)[C@@H](C(C)C)C(=O)N[C@@H](C(C)C)C(=O)N(C)[C@@H](CC(C)C)C(=O)N[C@@H](C)C(=O)N[C@H](C)C(=O)N(C)[C@@H](CC(C)C)C(=O)N(C)[C@@H](CC(C)C)C(=O)N(C)[C@@H](C(C)C)C(=O)N1C [DEB025, Alisporivir]
- passages of selective pressure needed to select resistant replicons ([4]; Huh 9-13, stepwise increasing drug with G418, on average): 35 passages
- time of selective pressure needed to select resistant replicons ([4]; Huh 9-13 / Huh 5-2, stepwise increasing drug with G418, average (four independent experiments for DEB025)): 20 weeks
- EC50 ([5]; read-out: EC50, inhibition of replicon replication, replicon engineered to contain DEB025^res NS5A sequence, transient, 72 h, luciferase, mean ± SD, SD): 390 ± 150 nM
- fold less active than in replicon with WT NS5A sequence ([5]; replicon with DEB025^res NS5A vs replicon with WT NS5A): 10 fold
- EC50 [6]: 40 ± 10 nM
- effect on WT replicon replication at a fixed concentration ([7]; 2.05 µM): completely inhibits WT replicon replication
- EC50 ([7]; read-out: EC50, inhibition of HCV replicon RNA, WT Huh 9-13 culture, 72 h treatment, RT-qPCR, mean ± SD, at least three independent experiments, SD): 30 ± 10 nM
- affinity to CypA compared with CsA (CypA): superior to that of CsA to CypA
- inhibition of calcineurin (calcineurin): do not inhibit calcineurin
- viral load reduction (HCV; 400 mg daily (with initial loading dose) combined with pegIFN/RBV): −1.96 log10 IU/ml
- viral load reduction (HCV; 800 mg daily combined with pegIFN/RBV): −2.38 log10 IU/ml
- mean maximal decrease in HCV viral load (HCV; phase I, HCV/HIV-coinfected patients, monotherapy 1200 mg BID, after 15 days): −3.6 log10 IU/ml
- decrease in viral load (HCV; treatment-naïve genotype 1 and 4 patients, therapy based on 1000 mg/day DEB025 (combined with pegIFN-α-2a)): −4.75 log10 IU/ml
- decrease in viral load (HCV; treatment-naïve genotype 2 and 3 patients): up to −5.89 log10 IU/ml
- adverse finding ([8]; 1000 mg dose, returned to baseline after treatment cessation): isolated and transient hyperbilirubinemia
- tolerability ([8]; lower doses regimens): very well tolerated
- EC50 [9]: 2050 ± 560 nM
- EC50 [10]: 460 ± 260 nM
- activity against replicons resistant to DAA inhibitors compared to WT [11]: retained WT-activity
- effect on the CypA-NS5A interaction (CypA-NS5A interaction; GST-CypA and His-tagged NS5A pull down, increasing drug concentrations): inhibit the CypA-NS5A interaction in a dose-dependent manner
- effect on interactions between CypA and WT or mutated NS5A (CypA-NS5A interaction; WT versus mutated NS5A, pull down): equally disrupted
- fold reduced sensitivity of resistant JFH1-derived replicon [12]: ~5 fold
- EC50 [13]: 40 ± 10 nM
- fold less active than in WT-transfected cell line ([14]; cells stably transfected with RNA from DEB025^res culture vs WT, on average): 10 fold
- EC50 ([14]; read-out: EC50, inhibition of replicon RNA, Huh7-Lunet stably transfected with RNA from DEB025^res culture, RT-qPCR, mean ± SD, SD): 440 ± 70 nM
- fold change in sensitivity compared to WT [3]: 1.28 fold and 1.93 fold
- fold reduction in sensitivity (based on EC50-values) compared to WT replicon ([3]; mutant A241P + R262Q + R318W + D320E): 4.33 fold
- fold reduction in sensitivity (based on EC50-values) compared to WT replicon ([3]; mutant NS5A D320E): 3.92 fold and 3.9 fold
- fold reduction in sensitivity (based on EC50-values) compared to WT replicon ([3]; mutant NS5A R318W): ~2 fold
- effect of NS5B I432V on antiviral activity ([3]; mutant NS5B I432V, luciferase assay (Figure S1)): neither reduced the antiviral activity
- fold reduction in sensitivity (based on EC50-values) compared to WT replicon ([3]; mutant R318W + D320E): 3.79 fold
- effect of DEB025^res NS5B gene in WT background on antiviral activity [15]: No reduction in antiviral activity

SMILES: COc1ccc2c(O[C@@H]3C[C@H]4C(=O)N[C@]5(C(=O)O)C[C@H]5/C=C\CCCCC[C@H](NC(=O)OC5CCCC5)C(=O)N4C3)cc(-c3csc(NC(C)C)n3)nc2c1 [BILN2061]
- antiviral activity against CsA^res replicons compared to WT [1]: retained WT-antiviral activity
- antiviral activity against DEB025^res replicons compared to WT [2]: retained WT-antiviral activity

SMILES: [N-]=[N+]=N[C@]1(CO)O[C@@H](n2ccc(N)nc2=O)[C@H](O)[C@@H]1O [4′-azidocytidine]
- antiviral activity against CsA^res replicons compared to WT [1]: retained WT-antiviral activity
- antiviral activity against DEB025^res replicons compared to WT [2]: retained WT-antiviral activity

SMILES: CNC(=O)c1c(-c2ccc(F)cc2)oc2cc(N(CCO)S(C)(=O)=O)c(C3CC3)cc12 [HCV796, reference compound]
- sensitivity of the generated mutant replicons compared to WT [3]: retained WT-activity
